Like-named read-outs stand apart in the source and are kept apart here.
Experiments:
[1] = bovine species, same (transdermal) formulation; cited from earlier work
[2] = Pharmacokinetic study of flunixin in young piglets, comparing administration routes (plasma LC-MS/MS); format: in vivo, piglets (swine); conditions: pig, read-out: % F (bioavailability)
Procedure: A pharmacokinetic study was conducted to compare the bioavailability of flunixin when administered buccally, intramuscularly, IV, and the transdermal routes via the perineum, ear canal, rectum, and midline in young piglets.
Piglets were administered either Banamine® Transdermal (buccal, perineum, ear canal, rectum, and midline) or Banamine®-S Injectable Solution (intravenous and intramuscular) at 5 to 6 days of age. Blood samples were collected from the piglets at 5 min, 15 min, 1 h, 2 h, 4 h, 8 h, 12 h, 24 h, 36 h, and 48 h for those treated with Banamine® Transdermal, and at 1 h, 2 h, 4 h, 8 h, 12 h, 24 h, 36 h, 48 h, 60 h, and 72 h for those treated with Banamine®-S Injectable Solution. Plasma samples were analyzed for flunixin concentration using an GLP-validated LC/MS-MS method. Swine plasma (K2EDTA) is extracted by protein precipitation with an acetonitrile solution of the internal standard (Flunixin-d3). The samples are then centrifuged, and the resulting supernatants are analyzed by LC-MS/MS using selective reaction monitoring in negative electrospray ionization mode. The ionic transitions monitored are m/z 295 to m/z 251 for Flunixin and m/z 298 to m/z 254 for the internal standard.
The following key pharmacokinetic parameters were calculated for each group (mean±standard error): […]

- bioavailability ([2]; im, Intramuscular, Banamine-S Injectable Solution, piglets): 71%
- bioavailability ([2]; other: buccal, Buccal, Banamine Transdermal, piglets): 40%
- bioavailability ([2]; topical or ocular, Midline, Banamine Transdermal, piglets (swine)): 5%
Structure (SMILES): Cc1c(Nc2ncccc2C(=O)O)cccc1C(F)(F)F [flunixin, Flunixin]
- bioavailability [1]: 44%
